The target of assay [1] is T1, cloned human δ receptor (Homo sapiens, UniProt P41143).
T1 construct: expressed in transfected cells; host or cells: human 293S (HEK-293S) cells, geneticin-selected
Put plainly: GTP[γ]35S binding functional assay, HEK-293S membranes expressing cloned human δ receptor (HDELTA). Type of assay: biochemical. As to the method:
(§1) • A. Human 293S cells expressing cloned human μ, δ, and κ receptors and neomycin resistance were grown in suspension at 37° C. and 5% CO2 in shaker flasks containing calcium-free DMEM10% FBS, 5% BCS, 0.1% Pluronic F-68, and 600 μg/ml geneticin. • B. Mouse and rat brains were weighed and rinsed in ice-cold PBS (containing 2.5 mM EDTA, pH 7.4). The brains were homogenized with a polytron for 15 sec (mouse) or 30 sec (rat) in ice-cold lysis buffer (50 mM Tris, pH 7.0, 2.5 mM EDTA, with phenylmethylsulfonyl fluoride added just prior use to […] from a 0.5M stock in DMSO:ethanol). Membrane Preparation
Cells were pelleted and resuspended in lysis buffer (50 mM Tris, pH 7.0, 2.5 mM EDTA, with PMSF added just prior to use to 0.1 mM from a 0.1 M stock in ethanol), incubated on ice for 15 min, then homogenized with a polytron for 30 sec. The suspension was spun at 1000 g (max) for 10 min at 4° C. The supernatant was saved on ice and the pellets resuspended and spun as before. The supernatants from both spins were combined and spun at 46,000 g(max) for 30 min. The pellets were resuspended in cold Tris buffer (50 mM Tris/Cl, pH 7.0) and spun again. The final pellets were resuspended in membrane buffer (50 mM Tris, 0.32 M sucrose, pH 7.0). Aliquots (1 ml) in polypropylene tubes were frozen in dry ice/ethanol and stored at −70° C. until use. The protein concentrations were determined by a modified Lowry assay with sodium dodecyl sulfate.
(§2) The agonist activity of the compounds is measured by determining the degree to which the compounds receptor complex activates the binding of GTP to G-proteins to which the receptors are coupled. In the GTP binding assay, GTP[γ]^35S is combined with test compounds and membranes from HEK-293S cells expressing the cloned human opioid receptors or from homogenised rat and mouse brain. Agonists stimulate GTP[γ]^35S binding in these membranes. The EC50 and Emax values of compounds are determined from dose-response curves. Right shifts of the dose response curve by the delta antagonist naltrindole are performed to verify that agonist activity is mediated through delta receptors.

Assay [2] deals with T2, delta receptors, rat brain membranes (Rattus norvegicus, UniProt P33533).
T2 construct: Rat brain membranes are thawed at 37° C; from tissue; host or cells: rat brain membranes
Put plainly: GTP[γ]35S binding functional assay, rat brain membranes. It is filed as biochemical. As to conditions: GTPγ35S binding, maximal stimulated binding with 3 μM SNC-80. As to the method: as §1, §2
Rat brain membranes are thawed at 37° C., passed 3 times through a 25-gauge blunt-end needle and diluted in the GTPγS binding (50 mM Hepes, 20 mM NaOH, 100 mM NaCl, 1 mM EDTA, 5 mM MgCl2, pH 7.4, Add fresh: 1 mM DTT, 0.1% BSA). 120 μM GDP final is added membranes dilutions. […] The basal and maximal stimulated binding are determined in absence and presence of 3 μM SNC-80

Assay [3] addresses T3, delta receptors, mouse brain membranes (Mus musculus, UniProt P32300).
T3 construct: from tissue; host or cells: mouse brain membranes
Put plainly: GTP[γ]35S binding functional assay, mouse brain membranes. Type of assay: biochemical. As to the method:
as §1, §2

In assay [4] the target is T1, cloned human δ receptor. Put plainly: Binding assay, membranes of human 293S cells expressing cloned human δ receptor (HDELTA). As to conditions: radioligand displacement.

T1 sequence (P41143 whole entry): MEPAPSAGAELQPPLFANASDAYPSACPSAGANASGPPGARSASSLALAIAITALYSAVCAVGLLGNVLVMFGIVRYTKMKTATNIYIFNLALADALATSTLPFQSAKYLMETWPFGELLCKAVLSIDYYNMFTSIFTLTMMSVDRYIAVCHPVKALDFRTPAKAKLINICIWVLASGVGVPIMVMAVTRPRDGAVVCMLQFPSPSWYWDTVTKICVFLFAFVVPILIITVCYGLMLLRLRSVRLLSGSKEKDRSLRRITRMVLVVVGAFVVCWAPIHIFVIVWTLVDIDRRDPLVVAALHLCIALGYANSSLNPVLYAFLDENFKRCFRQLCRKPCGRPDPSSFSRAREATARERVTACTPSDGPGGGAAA
T3 sequence (P32300 whole entry): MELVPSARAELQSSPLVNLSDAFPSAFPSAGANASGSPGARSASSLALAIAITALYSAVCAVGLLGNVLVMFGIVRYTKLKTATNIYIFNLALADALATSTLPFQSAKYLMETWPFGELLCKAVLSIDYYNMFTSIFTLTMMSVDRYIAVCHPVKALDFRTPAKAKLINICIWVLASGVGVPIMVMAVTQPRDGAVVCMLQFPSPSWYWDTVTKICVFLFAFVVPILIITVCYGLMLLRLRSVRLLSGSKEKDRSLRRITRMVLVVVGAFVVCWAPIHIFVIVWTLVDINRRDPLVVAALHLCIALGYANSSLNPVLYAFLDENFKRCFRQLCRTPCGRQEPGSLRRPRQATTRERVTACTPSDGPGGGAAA
T2 sequence (P33533 whole entry): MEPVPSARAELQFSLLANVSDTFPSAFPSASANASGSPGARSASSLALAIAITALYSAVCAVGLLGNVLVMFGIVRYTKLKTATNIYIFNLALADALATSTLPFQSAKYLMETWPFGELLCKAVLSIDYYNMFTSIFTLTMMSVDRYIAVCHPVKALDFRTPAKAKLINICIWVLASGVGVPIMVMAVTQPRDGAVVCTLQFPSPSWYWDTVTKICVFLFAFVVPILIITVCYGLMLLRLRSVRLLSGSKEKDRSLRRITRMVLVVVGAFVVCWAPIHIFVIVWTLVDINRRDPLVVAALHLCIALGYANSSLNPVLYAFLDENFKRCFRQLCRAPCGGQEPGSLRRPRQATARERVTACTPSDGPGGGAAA

For the compound `CC(C)N(C(=O)c1ccc(C(=C2CCN(Cc3ccccc3)CC2)c2cccc3cccnc23)cc1)C(C)C` [Example 1, 4-[1-(1-Benzyl-piperidin-4-ylidene)-1-quinolin-8-yl-methyl]-N,N-diisopropyl-benzamide], the Emax was 96 to 102% at cloned human δ receptor [1], 97 to 144% in assay [2] and 100 to 151% in assay [3]. Besides, on cloned human δ receptor [4], the IC50 was 0.78 to 5 nM.

In the case of `CC(C)N(C(=O)c1ccc(C(=C2CCN(Cc3ccccn3)CC2)c2cccc3cccnc23)cc1)C(C)C` [Example 2, N,N-Diisopropyl-4-[1-(1-pyridin-2-ylmethyl-piperidin-4-ylidene)-1-quinolin-8-yl-methyl]-benzamide], the Emax lay in the range of 96 to 102% at cloned human δ receptor [1], 97 to 144% in assay [2] and 100 to 151% in assay [3]. At cloned human δ receptor [4], this compound registered an IC50 of 0.78 to 5 nM.

In the case of `CC(C)N(C(=O)c1ccc(C(=C2CCN(Cc3ccncc3)CC2)c2cccc3cccnc23)cc1)C(C)C` [Example 3, N,N-Diisopropyl-4-[1-(1-pyridin-4-ylmethyl-piperidin-4-ylidene)-1-quinolin-8-yl-methyl]-benzamide], the Emax was 96 to 102% at cloned human δ receptor [1], 97 to 144% in assay [2] and 100 to 151% in assay [3]. On cloned human δ receptor [4], this compound registered an IC50 of 0.78 to 5 nM.

For the compound `CC(C)N(C(=O)c1ccc(C(=C2CCN(Cc3cccs3)CC2)c2cccc3cccnc23)cc1)C(C)C` [Example 4, N,N-Diisopropyl-4-[1-quinolin-8-yl-1-(1-thiophen-2-ylmethyl-piperidin-4-ylidene)-methyl]-benzamide], the Emax fell in the range of 96 to 102% on cloned human δ receptor [1], 97 to 144% in assay [2] and 100 to 151% in assay [3]. Also, the IC50 on cloned human δ receptor [4] lay in the range of 0.78 to 5 nM.

As for `CC(C)N(C(=O)c1ccc(C(=C2CCN(Cc3ccoc3)CC2)c2cccc3cccnc23)cc1)C(C)C` [Example 6, N,N-Diisopropyl-4-[1-quinolin-8-yl-1-(1-furan-3-ylmethyl-piperidin-4-ylidene)-methyl]-benzamide], the Emax lay in the range of 96 to 102% at cloned human δ receptor [1], 97 to 144% in assay [2] and 100 to 151% in assay [3]. For the same compound, the IC50 on cloned human δ receptor [4] lay within 0.78 to 5 nM.

With `CC(C)N(C(=O)c1ccc(C(=C2CCN(Cc3ccco3)CC2)c2cccc3cccnc23)cc1)C(C)C` [Example 7, N,N-Diisopropyl-4-[1-quinolin-8-yl-1-(1-furan-2-ylmethyl-piperidin-4-ylidene)-methyl]-benzamide], the Emax on cloned human δ receptor [1] was 96 to 102%; in assay [2], 97 to 144%; in assay [3], 100 to 151%. Besides, on cloned human δ receptor [4], the IC50 fell in the range of 0.78 to 5 nM.

In the case of `COc1ccc(CN2CCC(=C(c3ccc(C(=O)N(C(C)C)C(C)C)cc3)c3cccc4cccnc34)CC2)cc1` [Example 8, N,N-Diisopropyl-4-{1-[1-(4-methoxy-benzyl)-piperidin-4-ylidene]-1-quinolin-8-yl-methyl}-benzamide], the Emax lay within 96 to 102% at cloned human δ receptor [1], 97 to 144% in assay [2] and 100 to 151% in assay [3]. For the same compound, the IC50 on cloned human δ receptor [4] was in the range of 0.78 to 5 nM.

For the compound `CC(C)N(C(=O)c1ccc(C(=C2CCN(Cc3nccs3)CC2)c2cccc3cccnc23)cc1)C(C)C` [Example 9, N,N-Diisopropyl-4-[1-quinolin-8-yl-1-(1-thiazol-2-ylmethyl-piperidin-4-ylidene)-methyl]-benzamide], the values for the Emax (at cloned human δ receptor [1]; in assay [2]; in assay [3]) were 96 to 102%, 97 to 144% and 100 to 151%, respectively. At cloned human δ receptor [4], the IC50 lay within 0.78 to 5 nM.

With `CC(C)N(C(=O)c1ccc(C(=C2CCN(Cc3ncc[nH]3)CC2)c2cccc3cccnc23)cc1)C(C)C` [Example 10, 4-{1-[1-(1H-Imidazol-2-ylmethyl)-piperidin-4-ylidene]-1-quinolin-8-yl-methyl]-N,N-diisopropylbenzamide], the Emax lay within 96 to 102% at cloned human δ receptor [1], 97 to 144% in assay [2] and 100 to 151% in assay [3]. Also, the IC50 at cloned human δ receptor [4] was 0.78 to 5 nM.

As to `CC(C)N(C(=O)c1ccc(C(=C2CCN(Cc3ccc(Br)cc3)CC2)c2cccc3cccnc23)cc1)C(C)C` [Example 11], the Emax on cloned human δ receptor [1] lay in the range of 96 to 102%; in assay [2] it was 97 to 144%; in assay [3], 100 to 151%. At cloned human δ receptor [4], this compound yielded an IC50 of 0.78 to 5 nM.
